Measurements published in patent US20220089575A1, “FARNESOID X RECEPTOR AGONISTS AND USES THEREOF” (Metacrine, Inc., priority 2017, published 2022).

What follows are compounds tested against T1, hFXR (Homo sapiens, UniProt Q96RI1) (assay: In Vitro FXR Assay (TK): TK-ECRE-luc reporter in transfected CV-1 cells). Details: 18 hrs, luminescence, maximum efficacy of <25% of the Fexarmine control classified as '+'.
T1 construct: expressed in transfected cells; host or cells: CV-1 cells
T1 sequence (Q96RI1 1-486): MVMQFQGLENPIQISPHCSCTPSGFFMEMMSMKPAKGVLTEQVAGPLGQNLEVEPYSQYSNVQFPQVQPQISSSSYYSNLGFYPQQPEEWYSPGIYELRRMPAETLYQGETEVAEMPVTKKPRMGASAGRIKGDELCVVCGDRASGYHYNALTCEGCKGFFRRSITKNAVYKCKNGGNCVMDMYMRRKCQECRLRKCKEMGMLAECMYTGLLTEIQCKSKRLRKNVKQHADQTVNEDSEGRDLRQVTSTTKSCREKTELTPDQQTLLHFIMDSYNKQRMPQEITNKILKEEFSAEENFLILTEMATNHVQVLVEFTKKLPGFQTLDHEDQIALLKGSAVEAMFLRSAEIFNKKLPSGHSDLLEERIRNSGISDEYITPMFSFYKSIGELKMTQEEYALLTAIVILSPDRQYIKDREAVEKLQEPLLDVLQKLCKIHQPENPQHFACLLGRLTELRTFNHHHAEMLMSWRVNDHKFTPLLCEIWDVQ
T1 sequence (P19793 1-462 partner): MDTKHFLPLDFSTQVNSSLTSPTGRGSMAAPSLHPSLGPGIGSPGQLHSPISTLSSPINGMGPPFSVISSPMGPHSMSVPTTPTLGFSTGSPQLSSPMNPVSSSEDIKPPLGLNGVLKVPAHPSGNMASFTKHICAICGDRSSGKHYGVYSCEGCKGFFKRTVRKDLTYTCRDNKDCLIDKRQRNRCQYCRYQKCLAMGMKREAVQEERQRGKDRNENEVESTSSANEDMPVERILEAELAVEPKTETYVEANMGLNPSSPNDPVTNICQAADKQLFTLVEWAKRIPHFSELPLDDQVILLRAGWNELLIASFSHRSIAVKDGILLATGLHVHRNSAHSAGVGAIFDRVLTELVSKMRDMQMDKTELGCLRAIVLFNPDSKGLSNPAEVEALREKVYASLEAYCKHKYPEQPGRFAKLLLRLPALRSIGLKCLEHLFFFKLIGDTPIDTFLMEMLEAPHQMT
Format: cell-based
Procedure, shortened: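 Cells are seeded in charcoal double-stripped FBS medium, transfected overnight with FXR/RXR expression and ECRE-driven luciferase reporter plasmids, then treated with serially diluted compounds for 18 h. Lysates are measured for luciferase light output.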

| EC50 [nM] | Structure (SMILES) |
| --- | --- |
| ≤ 250 | COc1ccc([C@H]2CC[C@H](CN(c3cccc(-c4cnn(C5CC5)c4)c3)C(=O)[C@H]3CC[C@H](OC(=O)N4CCC4)CC3)CC2)cc1C [Compound 7.31, trans-4-((3-(1-Cyclopropyl-1H-pyrazol-4-yl)phenyl)((trans-4-(4-methoxy-3-methylphenyl)cyclohexyl)methyl)carbamoyl)cyclohexyl azetidine-1-carboxylate] |
| ≤ 250 | COc1ccc([C@H]2CC[C@H](CN(c3cccc(-c4cnn(C5CC5)c4)c3)C(=O)[C@H]3CC[C@H](OC(=O)N4CC(CN(C)C)C4)CC3)CC2)cc1C [Compound 7.32, trans-4-((3-(1-Cyclopropyl-1H-pyrazol-4-yl)phenyl)((trans-4-(4-methoxy-3-methylphenyl)cyclohexyl)methyl)carbamoyl)cyclohexyl 3-((dimethylamino)methyl)azetidine-1-carboxylate] |
| ≤ 250 | COc1ccc([C@H]2CC[C@H](CN(c3cccc(-c4cnn(C5CC5)c4)c3)C(=O)[C@H]3CC[C@H](OC(=O)N4CC(O)C4)CC3)CC2)nc1C#N [Compound 7.33, trans-4-(((trans-4-(6-Cyano-5-methoxypyridin-2-yl)cyclohexyl)methyl)(3-(1-cyclopropyl-1H-pyrazol-4-yl)phenyl)carbamoyl) cyclohexyl 3-hydroxyazetidine-1-carboxylate] |
| ≤ 250 | COC(=O)C1CN(C(=O)O[C@H]2CC[C@H](C(=O)N(C[C@H]3CC[C@H](c4ccc(OC)c(C)c4)CC3)c3cccc(-c4cnn(C5CC5)c4)c3)CC2)C1 [Compound 7.34, 1-(trans-4-((3-(1-Cyclopropyl-1H-pyrazol-4-yl)phenyl)((trans-4-(4-methoxy-3-methylphenyl)cyclohexyl)methyl)carbamoyl)cyclohexyl) 3-methylazetidine-1,3-dicarboxylate] |
| ≤ 250 | COc1ccc([C@H]2CC[C@H](CN(c3cccc(-c4cnn(C5CC5)c4)c3)C(=O)[C@H]3CC[C@H](OC(=O)N4CC(C(=O)O)C4)CC3)CC2)cc1C [Compound 7.35, 1-(((trans-4-((3-(1-Cyclopropyl-1H-pyrazol-4-yl)phenyl)((trans-4-(4-methoxy-3-methylphenyl)cyclohexyl)methyl)carbamoyl)cyclohexyl)oxy)carbonyl)azetidine-3-carboxylic acid] |
| ≤ 250 | CNC1CN(C(=O)O[C@H]2CC[C@H](C(=O)N(C[C@H]3CC[C@H](c4ccc(OC)c(C)c4)CC3)c3cccc(-c4cnn(C5CC5)c4)c3)CC2)C1 [Compound 7.37] |
| ≤ 250 | COc1ccc([C@H]2CC[C@H](CN(c3cccc(-c4cnn(C5CC5)c4)c3)C(=O)[C@H]3CC[C@H](OC(=O)N4CC(N)C4)CC3)CC2)cc1C [Compound 7.39, trans-4-((3-(1-Cyclopropyl-1H-pyrazol-4-yl)phenyl)((trans-4-(4-methoxy-3-methylphenyl)cyclohexyl)methyl)carbamoyl)cyclohexyl 3-aminoazetidine-1-carboxylate] |
| ≤ 250 | COc1ccc([C@H]2CC[C@H](CN(c3cc(-c4cnn(C(C)C)c4)ccn3)C(=O)[C@H]3CC[C@H](OC(=O)N4CC(O)C4)CC3)CC2)nc1C#N [Compound 7.40, trans-4-(((trans-4-(6-Cyano-5-methoxypyridin-2-yl)cyclohexyl)methyl)(4-(1-isopropyl-1H-pyrazol-4-yl)pyridin-2-yl)carbamoyl) cyclohexyl 3-hydroxyazetidine-1-carboxylate] |
| ≤ 250 | COC(=O)CC1CN(C(=O)O[C@H]2CC[C@H](C(=O)N(C[C@H]3CC[C@H](c4ccc(OC)c(C)c4)CC3)c3cccc(-c4cnn(C5CC5)c4)c3)CC2)C1 [Compound 7.41, trans-4-((3-(1-Cyclopropyl-1H-pyrazol-4-yl)phenyl)((trans-4-(4-methoxy-3-methylphenyl)cyclohexyl)methyl)carbamoyl)cyclohexyl 3-(2-methoxy-2-oxoethyl)azetidine-1-carboxylate] |
| ≤ 250 | COc1ccc([C@H]2CC[C@H](CN(c3cccc(-c4cnn(C5CC5)c4)c3)C(=O)[C@H]3CC[C@H](OC(=O)N4CC(CC(=O)O)C4)CC3)CC2)cc1C [Compound 7.42, 2-(1-(((trans-4-((3-(1-Cyclopropyl-1H-pyrazol-4-yl)phenyl)((trans-4-(4-methoxy-3-methylphenyl)cyclohexyl)methyl)carbamoyl)cyclohexyl)oxy)carbonyl)azetidin-3-yl)acetic acid] |
| ≤ 250 | COc1ccc([C@H]2CC[C@H](CN(c3cccc(-c4cnn(C(C)C)c4)c3)C(=O)[C@H]3CC[C@H](OC(=O)N4CC(O)C4)CC3)CC2)nc1C#N [Compound 7.43, trans-4-(((trans-4-(6-Cyano-5-methoxypyridin-2-yl)cyclohexyl)methyl)(3-(1-isopropyl-1H-pyrazol-4-yl)phenyl)carbamoyl)cyclohexyl 3-hydroxyazetidine-1-carboxylate] |
| ≤ 250 | COc1ccc([C@H]2CC[C@H](CN(c3cc(-c4cnn(C(C)C)c4)ccn3)C(=O)[C@H]3CC[C@H](OC(=O)NC(C)C)CC3)CC2)nc1C [Compound 7.44, trans-4-((4-(1-Isopropyl-1H-pyrazol-4-yl)pyridin-2-yl)((trans-4-(5-methoxy-6-methylpyridin-2-yl)cyclohexyl)methyl)carbamoyl)cyclohexyl isopropylcarbamate] |
| ≤ 250 | COc1ccc([C@H]2CC[C@H](CN(c3cc(-c4cnn(C(C)C)c4)ccn3)C(=O)[C@H]3CC[C@H](OC(=O)N(C)C)CC3)CC2)cc1C#N [Compound 7.45, trans-4-(((trans-4-(3-Cyano-4-methoxyphenyl)cyclohexyl)methyl)(4-(1-isopropyl-1H-pyrazol-4-yl)pyridin-2-yl)carbamoyl)cyclohexyl dimethylcarbamate] |
| ≤ 250 | COc1ccc([C@H]2CC[C@H](CN(c3cc(-c4cnn(C(C)C)c4)ccn3)C(=O)[C@H]3CC[C@H](OC(=O)N4CCC4)CC3)CC2)cc1C#N [Compound 7.46, trans-4-(((trans-4-(3-Cyano-4-methoxyphenyl)cyclohexyl)methyl)(4-(1-isopropyl-1H-pyrazol-4-yl)pyridin-2-yl)carbamoyl)cyclohexyl azetidine-1-carboxylate] |
| ≤ 250 | CCC1CN(C(=O)O[C@H]2CC[C@H](C(=O)N(C[C@H]3CC[C@H](c4ccc(OC)c(C#N)c4)CC3)c3cc(-c4cnn(C(C)C)c4)ccn3)CC2)C1 [Compound 7.47, trans-4-(((trans-4-(3-Cyano-4-methoxyphenyl)cyclohexyl)methyl)(4-(1-isopropyl-1H-pyrazol-4-yl)pyridin-2-yl)carbamoyl)cyclohexyl 3-ethylazetidine-1-carboxylate] |
| ≤ 250 | COc1ccc([C@H]2CC[C@H](CN(c3cc(-c4cnn(C(C)C)c4)ccn3)C(=O)[C@H]3CC[C@H](OC(=O)N4CC(OC)C4)CC3)CC2)cc1C#N [Compound 7.48, trans-4-(((trans-4-(3-Cyano-4-methoxyphenyl)cyclohexyl)methyl)(4-(1-isopropyl-1H-pyrazol-4-yl)pyridin-2-yl)carbamoyl)cyclohexyl 3-methoxyazetidine-1-carboxylate] |
| ≤ 250 | COc1ccc([C@H]2CC[C@H](CN(c3cc(-c4cnn(C(C)C)c4)ccn3)C(=O)[C@H]3CC[C@H](OC(=O)N4CC(OC(C)C)C4)CC3)CC2)cc1C#N [Compound 7.49, trans-4-(((trans-4-(3-Cyano-4-methoxyphenyl)cyclohexyl)methyl)(4-(1-isopropyl-1H-pyrazol-4-yl)pyridin-2-yl)carbamoyl)cyclohexyl 3-isopropoxyazetidine-1-carboxylate] |

| Structure (SMILES) | EC50 [nM] |
| --- | --- |
| COc1ccc([C@H]2CC[C@H](CN(c3cccc(-c4cnn(C5CC5)c4)c3)C(=O)[C@H]3CC[C@H](OC(=O)N4CC(N(C)C(=O)OC(C)(C)C)C4)CC3)CC2)cc1C [Compound 7.36, trans-4-((3-(1-Cyclopropyl-1H-pyrazol-4-yl)phenyl)((trans-4-(4-methoxy-3-methylphenyl)cyclohexyl)methyl)carbamoyl)cyclohexyl 3-((tert-butoxycarbonyl)(methyl)amino) azetidine-1-carboxylate] | ≤ 250 |
| COc1ccc([C@H]2CC[C@H](CN(c3cccc(-c4cnn(C5CC5)c4)c3)C(=O)[C@H]3CC[C@H](OC(=O)N4CC(NC(=O)OC(C)(C)C)C4)CC3)CC2)cc1C [Compound 7.38, trans-4-((3-(1-Cyclopropyl-1H-pyrazol-4-yl)phenyl)((trans-4-(4-methoxy-3-methylphenyl)cyclohexyl)methyl)carbamoyl)cyclohexyl 3-((tert-butoxycarbonyl)amino)azetidine-1-carboxylate] | ≤ 250 |
